Columns and labels:
[1] = target: T1, 5-HT3-C together with nicotinic ACh receptor a6 subunit (Homo sapiens, UniProt Q15825+Q8WXA8); experiment: Two-electrode voltage clamp, oocytes injected with 5-HT3-C together with nicotinic ACh receptor α6 subunit; format: cell-based; conditions: 10 μM; eight days after injection; 5-HT3-C 0.67 ng, a6 1 ng/oocyte
T1 construct: Characterization of the Function of Protein Encoded by p5HT3CR in Xenopus oocvtes; expressed in transfected cells; host or cells: Xenopus laevis oocytes injected with cRNA
Method: Characterization of the Function of Protein Encoded by p5HT3CR in Xenopus oocvtes Xenopus laevis oocytes were prepared and injected using standard methods previously described and known in the art (Fraser et al., 1993). Ovarian lobes from adult female Xenopus laevis (Nasco, Fort Atkinson, Wis.) were teased apart, rinsed several times in nominally Ca-free saline containing (in mM): NaCl 82.5, KCl 2.5, MgCl2 1, HEPES 5, adjusted to pH 7.0 with NaOH(OR-2), and gently shaken in OR-2 containing 0.2% collagenase Type 1 (ICN Biomedicals, Aurora, Ohio) for 2–5 hours. When approximately 50% of the follicular layers were removed, Stage V and VI oocytes were selected and rinsed in media consisting of 75% OR-2 and 25% ND-96. The ND-96 contained (in mM): NaCl 100, KCl 2, MgCl2 1, CaCl2 1.8, HEPES 5, Na pyruvate 2.5, gentamicin (50 ug/ml), adjusted to pH 7.0 with NaOH. […] For in vitro transcription, pGEM HE (Liman et al., 1992) containing human 5-HT3-A (Genbank D49394) or 5-HT3-C cDNA was linearized with NheI and transcribed with T7 RNA polymerase (Stratagene) in the presence of the cap analog m7G(5′)ppp(5′)G. The synthesized cRNA was purified with a Sephadex G-50 spin column. Oocytes were injected with 50 nl of the human serotonin 5-HT3-A receptor with or without the 5-HT3-C RNA (0.02 and 0.002–0.2 ng each) or other channel or receptor subunit. Control oocytes were injected with 50 nl of water. Oocytes were incubated for 2–14 days in ND-96 before analysis for expression of the human 5-HT3-C. Incubations and collagenase digestion were carried out at room temperature. Injected oocytes were maintained in 48 well cell culture clusters (Costar, Cambridge, Mass.) at 18° C. Whole cell agonist-induced currents were measured 1–14 days after injection with a conventional two-electrode voltage clamp (GeneClamp500, Axon Instruments, Foster City, Calif.) using standard methods previously described and known in the art (Dascal, 1987). The microelectrodes were filled with 3 M KCl, which had resistances of 1 and 2 MΩ. […]

5-HT3-B and 5-HT3-C = target: T2, 5-HT3-B and 5-HT3-C (Homo sapiens, UniProt O95264+Q8WXA8); experiment: Two-electrode voltage clamp, oocytes co-injected with 5-HT3-B and 5-HT3-C; format: cell-based; conditions: 10 μM; 5-HT3-B 3.3 ng, 5-HT3-C 3.35 ng/oocyte
T2 construct: Characterization of the Function of Protein Encoded by p5HT3CR in Xenopus oocvtes; expressed in transfected cells; host or cells: Xenopus laevis oocytes co-injected with cRNAs
T2 sequence (O95264 22-441): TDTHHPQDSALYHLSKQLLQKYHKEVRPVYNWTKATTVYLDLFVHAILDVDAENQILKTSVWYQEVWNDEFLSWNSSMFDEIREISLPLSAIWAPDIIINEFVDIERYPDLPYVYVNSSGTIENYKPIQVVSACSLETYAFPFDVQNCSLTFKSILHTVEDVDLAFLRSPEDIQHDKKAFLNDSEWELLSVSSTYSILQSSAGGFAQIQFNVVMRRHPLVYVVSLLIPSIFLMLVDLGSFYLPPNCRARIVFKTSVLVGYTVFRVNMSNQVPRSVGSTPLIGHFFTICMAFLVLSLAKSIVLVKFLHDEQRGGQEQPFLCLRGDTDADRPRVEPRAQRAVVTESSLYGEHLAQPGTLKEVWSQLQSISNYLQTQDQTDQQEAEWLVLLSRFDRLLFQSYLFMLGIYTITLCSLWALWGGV
T2 sequence (Q8WXA8 28-447): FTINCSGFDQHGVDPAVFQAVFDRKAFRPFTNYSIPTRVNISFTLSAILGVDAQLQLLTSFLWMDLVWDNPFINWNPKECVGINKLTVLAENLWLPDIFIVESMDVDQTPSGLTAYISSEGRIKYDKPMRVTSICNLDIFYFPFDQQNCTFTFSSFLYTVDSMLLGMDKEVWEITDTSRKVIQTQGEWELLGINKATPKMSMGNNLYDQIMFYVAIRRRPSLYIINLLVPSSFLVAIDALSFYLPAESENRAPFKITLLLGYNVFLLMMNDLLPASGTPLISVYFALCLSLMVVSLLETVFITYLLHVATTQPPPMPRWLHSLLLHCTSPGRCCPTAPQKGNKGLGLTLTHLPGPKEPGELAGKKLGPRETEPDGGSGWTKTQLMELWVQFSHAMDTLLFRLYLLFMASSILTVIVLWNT
Method: Characterization of the Function of Protein Encoded by p5HT3CR in Xenopus oocvtes Xenopus laevis oocytes were prepared and injected using standard methods previously described and known in the art (Fraser et al., 1993). Ovarian lobes from adult female Xenopus laevis (Nasco, Fort Atkinson, Wis.) were teased apart, rinsed several times in nominally Ca-free saline containing (in mM): NaCl 82.5, KCl 2.5, MgCl2 1, HEPES 5, adjusted to pH 7.0 with NaOH(OR-2), and gently shaken in OR-2 containing 0.2% collagenase Type 1 (ICN Biomedicals, Aurora, Ohio) for 2–5 hours. When approximately 50% of the follicular layers were removed, Stage V and VI oocytes were selected and rinsed in media consisting of 75% OR-2 and 25% ND-96. The ND-96 contained (in mM): NaCl 100, KCl 2, MgCl2 1, CaCl2 1.8, HEPES 5, Na pyruvate 2.5, gentamicin (50 ug/ml), adjusted to pH 7.0 with NaOH. […] For in vitro transcription, pGEM HE (Liman et al., 1992) containing human 5-HT3-A (Genbank D49394) or 5-HT3-C cDNA was linearized with NheI and transcribed with T7 RNA polymerase (Stratagene) in the presence of the cap analog m7G(5′)ppp(5′)G. The synthesized cRNA was purified with a Sephadex G-50 spin column. […] Control oocytes were injected with 50 nl of water. Oocytes were incubated for 2–14 days in ND-96 before analysis for expression of the human 5-HT3-C. Incubations and collagenase digestion were carried out at room temperature. Injected oocytes were maintained in 48 well cell culture clusters (Costar, Cambridge, Mass.) at 18° C. Whole cell agonist-induced currents were measured 1–14 days after injection with a conventional two-electrode voltage clamp (GeneClamp500, Axon Instruments, Foster City, Calif.) using standard methods previously described and known in the art (Dascal, 1987). The microelectrodes were filled with 3 M KCl, which had resistances of 1 and 2 MΩ. Cells were continuously perfused with ND96 at 10 ml/min at room temperature unless indicated. Membrane voltage was clamped at −70 mV unless indicated.

T1 sequence (Q15825 26-494, one chain of several): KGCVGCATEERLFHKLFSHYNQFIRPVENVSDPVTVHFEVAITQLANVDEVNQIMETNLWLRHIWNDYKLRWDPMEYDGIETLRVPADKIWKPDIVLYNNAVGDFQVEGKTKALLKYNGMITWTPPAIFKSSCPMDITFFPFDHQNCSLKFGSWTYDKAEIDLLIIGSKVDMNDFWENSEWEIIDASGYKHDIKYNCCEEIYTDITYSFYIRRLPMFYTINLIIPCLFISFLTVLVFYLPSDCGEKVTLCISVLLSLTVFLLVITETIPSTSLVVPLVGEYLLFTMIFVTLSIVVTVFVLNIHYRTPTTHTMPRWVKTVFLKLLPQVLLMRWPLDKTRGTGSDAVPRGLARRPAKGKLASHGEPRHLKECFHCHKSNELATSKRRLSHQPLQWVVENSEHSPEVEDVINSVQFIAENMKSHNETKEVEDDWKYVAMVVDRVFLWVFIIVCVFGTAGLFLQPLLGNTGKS

responsiveness of oocytes to agonist [1]: not responsive
responsiveness of oocytes to agonist (5-HT3-B and 5-HT3-C): unresponsive
SMILES: NCCc1c[nH]c2ccc(O)cc12 [5-HT, 5-hydroxytryptamine]
